Experimental data from patent publication US20240261294A1, “METHOD FOR TREATING IDH INHIBITOR-RESISTANT SUBJECTS” (Eli Lilly and Company, priority 2021, published 2024).
Changes are numbered by the printed parent chain. Like-named read-outs stand apart in the source and are kept apart here.

Tests used:
IDH2 R140Q = target: T1, IDH2 R140Q (Homo sapiens, UniProt P48735, R140Q); test: Inhibition of 2-HG production in IDH2 mutant U-87 MG cells; format: cell-based
T1 construct: expressed in transfected cells; host or cells: U-87 MG
T1 sequence (P48735 40-452 R140Q): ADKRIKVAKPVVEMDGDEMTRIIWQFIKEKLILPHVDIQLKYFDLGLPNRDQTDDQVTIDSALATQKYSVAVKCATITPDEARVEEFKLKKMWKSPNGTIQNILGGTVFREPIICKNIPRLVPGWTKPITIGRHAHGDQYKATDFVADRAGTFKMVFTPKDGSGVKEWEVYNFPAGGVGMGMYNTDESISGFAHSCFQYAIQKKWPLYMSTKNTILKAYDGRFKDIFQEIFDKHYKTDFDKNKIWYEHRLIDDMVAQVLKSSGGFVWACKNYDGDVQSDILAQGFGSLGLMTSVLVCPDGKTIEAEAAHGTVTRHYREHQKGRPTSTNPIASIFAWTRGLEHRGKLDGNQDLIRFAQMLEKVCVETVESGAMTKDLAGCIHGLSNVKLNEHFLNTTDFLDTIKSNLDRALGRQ

IDH2 R140L_Q316E trans = target: T2, IDH2 R140L_Q316E trans (Homo sapiens, UniProt P48735, Q316E/R140L); test: as above; format: cell-based; settings: 16 hours incubation, 50K cells/well, 100 μl media/well, read-out: Relative IC50 (nM) Mean, inhibition of 2-HG production
T2 construct: expressed in transfected cells; host or cells: U-87 MG
T2 sequence (P48735 40-452 R140L): T1 sequence (P48735 40-452 R140Q) with Q101L
T2 sequence (P48735 40-452 Q316E): T1 sequence (P48735 40-452 R140Q) with Q101R, Q277E

C=CC(=O)N1CCN([C@@H](CC2CC2)c2ccc([C@H](C)Nc3ncc4c(n3)N(CC)C(=O)OC4)cc2)CC1 [Compound A, 7-[[(1S)-1-[4-[(1S)-2-cyclopropyl-1-(4-prop-2-enoylpiperazin-1-yl)ethyl]phenyl]ethyl]amino]-1-ethyl-4H-pyrimido[4,5-d][1,3]oxazin-2-one]
IC50 (IDH2 R140Q; 16 hours incubation, 50K cells/well, 100 μl media/well, read-out: Relative IC50 (nM) Mean, inhibition of 2-HG production): 223 nM | IC50 (IDH2 R140Q; 72 hours incubation, 12.5K cells/well, 150 μl media/well, read-out: IC50, inhibition of 2-HG production): 28.4 nM | IC50 (IDH2 R140L_Q316E trans): 262 nM
